Tests used:
hERG channel = hERG channel (Homo sapiens, UniProt Q12809); experiment: hERG electrophysiology, automated whole-cell patch clamp (Patchliner)
Kv1.3 potassium channel = target: T1, Kv1.3 potassium channel (Homo sapiens, UniProt P22001); experiment: Kv1.3 potassium channel blocker activity, automated whole-cell patch clamp (Patchliner); format: cell-based; conditions: CHO-K1 cells stably expressing Kv1.3; whole cell current inhibition; read-out: Kv1.3_IC50
T1 construct: expressed in transfected cells
Procedure, shortened: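 CHO-K1 cells stably expressing Kv1.3, automated whole-cell patch clamp. Currents evoked by 100 ms steps from −90 mV holding to +40 mV at 0.1 Hz, sampled at 10 kHz unfiltered, P/4 leak subtraction; peak current inhibition measured, compound incubation ≤10 s between pulse trains.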

Sequence of hERG channel (Q12809 whole entry): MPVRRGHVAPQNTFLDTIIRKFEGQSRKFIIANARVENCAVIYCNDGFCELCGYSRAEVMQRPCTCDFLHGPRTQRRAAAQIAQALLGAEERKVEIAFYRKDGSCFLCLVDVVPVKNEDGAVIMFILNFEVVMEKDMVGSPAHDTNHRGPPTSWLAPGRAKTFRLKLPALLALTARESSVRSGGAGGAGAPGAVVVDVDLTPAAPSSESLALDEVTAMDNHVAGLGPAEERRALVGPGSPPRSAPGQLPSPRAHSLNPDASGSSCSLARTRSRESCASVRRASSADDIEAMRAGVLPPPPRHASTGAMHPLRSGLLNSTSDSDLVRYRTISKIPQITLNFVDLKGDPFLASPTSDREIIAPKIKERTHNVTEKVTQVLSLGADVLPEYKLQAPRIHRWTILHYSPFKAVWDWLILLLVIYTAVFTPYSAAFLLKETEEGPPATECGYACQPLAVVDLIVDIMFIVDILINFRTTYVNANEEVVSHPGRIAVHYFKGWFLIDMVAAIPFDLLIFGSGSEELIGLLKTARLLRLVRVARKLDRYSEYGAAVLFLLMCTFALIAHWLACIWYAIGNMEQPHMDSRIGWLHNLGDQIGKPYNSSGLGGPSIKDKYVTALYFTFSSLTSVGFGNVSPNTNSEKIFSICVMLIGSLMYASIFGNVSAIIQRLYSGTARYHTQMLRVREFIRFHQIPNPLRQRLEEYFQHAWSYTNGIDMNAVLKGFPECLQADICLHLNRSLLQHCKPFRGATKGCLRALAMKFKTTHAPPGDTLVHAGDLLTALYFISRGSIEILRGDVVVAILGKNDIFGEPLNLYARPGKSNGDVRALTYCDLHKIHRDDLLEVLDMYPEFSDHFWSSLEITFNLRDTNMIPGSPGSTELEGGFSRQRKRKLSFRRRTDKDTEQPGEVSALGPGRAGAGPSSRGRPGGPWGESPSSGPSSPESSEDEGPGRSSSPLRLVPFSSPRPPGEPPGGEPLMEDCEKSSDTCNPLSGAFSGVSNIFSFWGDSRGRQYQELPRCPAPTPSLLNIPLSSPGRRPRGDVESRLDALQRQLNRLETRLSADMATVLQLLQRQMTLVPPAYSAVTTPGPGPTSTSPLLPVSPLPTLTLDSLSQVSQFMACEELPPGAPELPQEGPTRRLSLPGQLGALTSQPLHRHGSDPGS
T1 sequence (P22001 whole entry): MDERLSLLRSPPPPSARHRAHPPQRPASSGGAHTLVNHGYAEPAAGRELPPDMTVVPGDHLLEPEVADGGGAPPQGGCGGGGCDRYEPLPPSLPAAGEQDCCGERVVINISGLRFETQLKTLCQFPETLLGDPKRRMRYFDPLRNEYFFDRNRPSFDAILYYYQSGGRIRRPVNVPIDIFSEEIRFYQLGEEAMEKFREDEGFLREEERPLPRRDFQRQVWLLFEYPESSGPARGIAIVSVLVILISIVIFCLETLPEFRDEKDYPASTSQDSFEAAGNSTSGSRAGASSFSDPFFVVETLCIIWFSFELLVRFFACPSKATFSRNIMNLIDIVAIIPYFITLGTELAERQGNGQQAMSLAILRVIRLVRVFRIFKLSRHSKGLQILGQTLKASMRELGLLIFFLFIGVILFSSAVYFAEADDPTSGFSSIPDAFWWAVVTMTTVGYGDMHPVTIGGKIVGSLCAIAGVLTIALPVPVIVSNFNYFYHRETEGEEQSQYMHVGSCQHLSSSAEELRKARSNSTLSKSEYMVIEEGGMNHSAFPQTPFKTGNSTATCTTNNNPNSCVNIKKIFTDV

SMILES	IC50 (Kv1.3 potassium channel) [µM]	IC50 (hERG channel) [µM]
N[C@@H](c1cc(Cl)c(Cl)cc1O)C1CCN(C(=O)[C@H]2COCCN2)CC1 [Compound 194, (4-((R)-amino(4,5-dichloro-2-hydroxyphenyl)methyl)piperidin-1-yl)((R)-morpholin-3-yl)methanone]	< 0.5	> 30
N[C@@H](c1cc(Cl)c(Cl)cc1O)C1CCN(C(=O)[C@@H]2COCCN2)CC1 [Compound 195, (4-((R)-amino(4,5-dichloro-2-hydroxyphenyl)methyl)piperidin-1-yl)((S)-morpholin-3-yl)methanone]	< 0.5	> 30
CNC(c1cc(Cl)c(Cl)cc1O)C1CCN(C(=O)[C@H](O)CO)CC1 (stereo partly drawn) [Compound 196, (2R)-1-[4-[(4,5-dichloro-2-hydroxyphenyl)(methylamino)methyl]piperidin-1-yl]-2,3-dihydroxypropan-1-one]	< 10	> 30
COC[C@@H](O)C(=O)N1CCC([C@@H](N)c2cc(Cl)c(Cl)cc2O)CC1 [Compound 197, (2R)-1-[4-[(R)-amino(4,5-dichloro-2-hydroxyphenyl)methyl]piperidin-1-yl]-2-hydroxy-3-methoxypropan-1-one trifluoroacetic acid]	< 10	> 30
Cc1cc([C@H](N)C2CCN(C(=O)[C@H](O)CO)CC2)c(O)cc1Cl [Compound 198, (2R)-1-[4-[(R)-amino(4-chloro-2-hydroxy-5-methylphenyl)methyl]piperidin-1-yl]-2,3-dihydroxypropan-1-one]	< 10	> 30
C[C@@H](O)[C@@H](N)C(=O)N1CCC([C@@H](N)c2cc(Cl)c(Cl)cc2O)CC1 [Compound 199, (2R,3R)-2-amino-1-[4-[(R)-amino(4,5-dichloro-2-hydroxyphenyl)methyl]piperidin-1-yl]-3-hydroxybutan-1-one trifluoroacetic acid]	< 0.5	> 30
CC(=O)N1CC(C(=O)N2CCC([C@@H](N)c3cc(Cl)c(Cl)cc3O)CC2)C1 [Compound 200, 1-(3-[4-[(R)-amino(4,5-dichloro-2-hydroxyphenyl)methyl]piperidine-1-carbonyl]azetidin-1-yl)ethan-1-one]	< 10	> 30

Second part, led by results:

IC50 (Kv1.3 potassium channel) [µM]	SMILES	IC50 (hERG channel) [µM]
< 10	CC(O)(CO)C(=O)N1CCC([C@@H](N)c2cc(Cl)c(Cl)cc2O)CC1 (stereo partly drawn) [Compound 201, 1-[4-[(R)-amino(4,5-dichloro-2-hydroxyphenyl)methyl]piperidin-1-yl]-2,3-dihydroxy-2-methylpropan-1-one Trifluoroacetic Acid]	> 30
< 0.5	Cn1cc(C(=O)N2CCC([C@@H](N)c3cc(Cl)c(Cl)cc3O)CC2)cn1 [Compound 203, (R)-(4-(amino(4,5-dichloro-2-hydroxyphenyl)methyl)piperidin-1-yl) (1-methyl-1H-pyrazol-4-yl)methanone]	< 30
< 10	N[C@@H](c1cc(Cl)c(Cl)cc1O)C1CCN(C(=O)c2c[nH]c3ccccc23)CC1 [Compound 204, (R)-(4-(amino(4,5-dichloro-2-hydroxyphenyl)methyl)piperidin-1-yl)(1H-indol-3-yl)methanone trifluoroacetic acid]	< 30
< 0.5	N[C@@H](c1cc(Cl)c(Cl)cc1O)C1CCN(C(=O)c2cnoc2)CC1 [Compound 205, 2-[(R)-amino[1-(1,2-oxazole-4-carbonyl)piperidin-4-yl]methyl]-4,5-dichlorophenol]	> 30
< 0.5	NC(=O)C(=O)N1CCC([C@@H](N)c2cc(Cl)c(Cl)cc2O)CC1 [Compound 206, 2-[4-[(R)-amino(4,5-dichloro-2-hydroxyphenyl)methyl]piperidin-1-yl]-2-oxoacetamide trifluoroacetic acid]	> 30
< 0.5	Cc1cc(O)c([C@H](N)C2CCN(C(=O)c3c[nH]c(=O)c(CO)c3)CC2)cc1Cl [Compound 207, (R)-5-(4-(amino (5-chloro-2-hydroxy-4-methylphenyl)methyl)piperidine-1-carbonyl)-3-(hydroxymethyl) pyridin-2(1H)-one]	> 30
